Laboratory results taken from article PMC8893300, “A Dynamic Mass Redistribution Assay for the Human Sweet Taste Receptor Uncovers G-Protein Dependent Biased Ligands” (Frontiers in Pharmacology, 2022).

Tested on: human sweet taste receptor (hT1R2/hT1R3) coupled to Gα16gust25
Assay: FLIPR calcium mobilization assay, R2/R3 Gα16gust25 U2OS cells
Assay type: cell-based
Conditions: for ΔlogR FLIPR Mean: FLIPR-Gα16gust25, operational model, logR minus sucralose logR; for ΔΔlogR Mean: ΔlogR FLIPR-Gα16gust25 minus ΔlogR DMR
Method: The R2/R3 U2OS clone produced above was subsequently transfected with a linearized plasmid encoding Gα16gust25 in pcDNA3-neo. Transfected cells surviving triple selection in growth medium containing 0.5 μg/ml Puromycin (for hT1R2 expression), 100 μg/ml zeocin (for hT1R3 expression) and 500 μg/ml geneticin (Gα16gust25 expression) were diluted at various densities to obtain isolated colonies. Individual colonies were expanded, and the presence of functional human sweet receptor and G protein was evaluated in a FLIPR assay using sucralose as the agonist. Selected colonies were further evaluated with a larger panel of agonists. One clone, called L1F2, was used for this study.
Cells were gently mixed with the virus at a multiplicity of infection (MOI) of 5. Using a multidrop, 70 μl per well of the cell and virus mixture was dispensed in a 384-well clear bottom plate (Fisher). After 24 h of incubation in a humidified 37°C tissue culture incubator, trichostatin A was added to a final concentration of 0.3 μM and the cells were incubated for another 18–24 h at 34°C. On the day of the experiment, cells were loaded with 4 μM of the calcium indicator Fluo-4 AM (Invitrogen) in D-PBS for 1 h at room temperature. After washing the cells with D-PBS using a cell washer (BioTek) and a 30-minute rest time, the cell plate and the compound plate were transferred into the FLIPR-Tetra (Molecular Devices). Imaging and data analysis was performed as described ([Servant et al., 2010]). Alternatively, R2/R3 Gα16gust25 U2OS cells were re-suspended at a final density of 2.25 × 10^5 viable cells per mL and the mixture was dispensed in a 384-well clear bottom plate (Fisher) at 80 μl per well. Loading and the FLIPR assay were run as described above. When indicated, data for agonist dose-responses were normalized to data obtained with a maximum concentration of sucralose (1 mM) and then fitted and plotted using GraphPad Prism (San Diego, CA) and non-linear regression analysis.
To visualize and assess bias between the two different cell-based assays, we used bias plotting as described ([Drake et al., 2008]; [Peters and Scott, 2009]; [Gregory et al., 2010]; [Thomsen et al., 2012]; [Kenakin, 2015]; [Montero-Melendez et al., 2015]). To calculate relative potency bias between the two assays, we calculated a ratio of the negative logarithm of the EC50 (in M) of each agonist to that of sucralose (a sucralose dose-response was performed as a control on the same day) as described: pEC50 compound X–pEC50 sucralose. This value, that we termed pEC50Ratio (sucralose) or pEC50R (sucralose), was calculated with EC50 values obtained in the two assay systems. This transformation also allowed determination of an average and a standard error for the pEC50R (sucralose). The two sets of data (DMR and FLIPR data) were then analyzed with an un-paired t-test (α = 0.05). To calculate relative efficacy bias between the two assays, we captured the top asymptote value from each activity-normalized dose-response curve, as provided by the curve fit, calculated an average and a standard deviation (sd) for each agonist and then analyzed the data pairs with an un-paired t-test (α = 0.05). Assay bias was also estimated using an operational model ([Kenakin et al., 2012]; [Nagi and Pineyro, 2016]). The following steps were followed: 1) Using the PRISM software, we re-analyzed each ligand’s dose-response data obtained in each assay with non-linear regression and the users-defined equation “New Operational Model with TauKa ratios” and retrieved logR values from the fits.

SMILES | ΔlogR FLIPR Mean | ΔΔlogR Mean
COC(=O)[C@H](Cc1ccccc1)NC(=O)[C@H](CC(=O)O)NCCC(C)(C)C [Neotame] | 1.52 | 0.36
CC(C)Oc1ccc(NC(=S)NCc2ccc[nH]2)cc1 [S819] | 2.40 | −0.13
CC(C)Oc1ccc(NC(=S)NCc2cccs2)cc1 [S5227] | 1.73 | −0.12
